Source: patent US10294202B2, “Pyrrolidinones as herbicides” (FMC Corporation, priority 2013, dated 2019)

Assays:
galium = assay: Test D pre-/postemergence herbicide test; format: in vivo, Galium aparine; conditions: for Plant response rating: Galium, scale 0 to 100; for Plant response rating, Galium: scale 0 to 100 (0 no effect, 100 complete control)
Source text: Seeds of plant species selected from bluegrass (annual bluegrass, Poa annua), blackgrass (Alopecurus myosuroides), canarygrass (littleseed canarygrass, Phalaris minor), chickweed (common chickweed, Stellaria media), galium (catchweed bedstraw, Galium aparine), bromegrass, downy (downy bromegrass, Bromus tectorum), field poppy (Papaver rhoeas), field violet (Viola arvensis), foxtail, green (green foxtail, Setaria viridis), deadnettle (henbit deadnettle, Lamium amplexicaule), ryegrass, Italian (Italian ryegrass, Lolium multiflorum), kochia (Kochia scoparia), lambsquarters (Chenopodium album), oilseed rape (Brassica napus), pigweed (Amaranthus retroflexus), chamomile (scentless chamomile, Matricaria inodora), Russian thistle (Salsola kali), speedwell (bird's-eye speedwell, Veronica persica), barley, spring (spring barley, Hordeum vulgare), wheat, spring (spring wheat, Triticum aestivum), buckwheat, wild (wild buckwheat, Polygonum convolvulus), mustard, wild (wild mustard, Sinapis arvensis), oat, wild (wild oat, Avena fatua), radish, wild (wild radish, Raphanus raphanistrum), […]), barley, winter (winter barley, Hordeum vulgare), and wheat, winter (winter wheat, Triticum aestivum) were planted into a silt loam soil and treated preemergence with test chemicals formulated in a non-phytotoxic solvent mixture which included a surfactant. At the same time, these species were planted in pots containing Redi-Earth® planting medium (Scotts Company, 14111 Scottslawn Road, Marysville, Ohio 43041) comprising spaghnum peat moss, vermiculite, wetting agent and starter nutrients and treated with postemergence applications of the test chemicals formulated in the same manner. Plants ranged in height from 2 to 18 cm (1- to 4-leaf stage). Treated plants and controls were maintained in a controlled growth environment for 7 to 21 days after which time all species were compared to controls and visually evaluated. Plant response ratings, summarized in Table D, are based on a scale of 0 to 100 where 0 is no effect and 100 is complete control. A dash (-) response means no test result.

foxtail, giant = assay: Test E preemergence herbicide test; format: in vivo, Setaria faberii; design: key: 0 = no effect, 100 = complete control
Source text: (§1) Seeds of plant species selected from corn (Zea mays), soybean (Glycine max), velvetleaf (Abutilon theophrasti), lambsquarters (Chenopodium album), wild poinsettia (Euphorbia heterophylla), pigweed, palmer (palmer pigweed, Amaranthus palmeri), waterhemp (common waterhemp, Amaranthus rudis), surinam grass (Brachiaria decumbens), crabgrass, large (large crabgrass, Digitaria sanguinalis), crabgrass, Brazil (Brazilian crabgrass, Digitaria horizontalis), panicum, fall (fall panicum, Panicum dichotomiflorum), foxtail, giant (giant foxtail, Setaria faberii), foxtail, green (green foxtail, Setaria viridis), goosegrass (Eleusine indica), johnsongrass (Sorghum halepense), ragweed (common ragweed, Ambrosia elatior), barnyardgrass (Echinochloa crus-galli), sandbur (southern sandbur, Cenchrus echinatus), arrowleaf […] rhombifolia), ryegrass, Italian (Italian ryegrass, Lolium multiflorum), dayflower, VA (Virginia dayflower, Commelina virginica), field bindweed (Convolvulus arvensis), morningglory (Ipomoea coccinea), nightshade (eastern black nightshade, Solanum ptycanthum), kochia (Kochia scoparia), nutsedge, yellow (yellow nutsedge, Cyperus esculentus), cocklebur (common cocklebur, Xanthium strumarium), smartweed (ladysthumb smartweed, Polygonum Persicaria) and beggarticks (hairy beggarticks, Bidens pilosa), were planted into a silt loam soil and treated preemergence with test chemicals formulated in a non-phytotoxic solvent mixture which included a surfactant. Treated plants and controls were maintained in a greenhouse for 21 days, after which time all species were compared to controls and visually evaluated. Plant response ratings, summarized in Table E, are based on a scale of 0 to 100 where 0 is no effect and 100 is complete control. A dash (-) response means no test result.

soybean = assay: Test E preemergence herbicide test; format: in vivo, Glycine max; design: key: 0 = no effect, 100 = complete control
Source text: as §1

barnyardgrass = assay: Test E preemergence herbicide test; format: in vivo, Echinochloa crus-galli; design: key: 0 = no effect, 100 = complete control
Source text: as §1

lambsquarters = assay: Test E preemergence herbicide test; format: in vivo, Chenopodium album; design: key: 0 = no effect, 100 = complete control
Source text: as §1

cocklebur = assay: Test C pre-/postemergence herbicide test; format: in vivo, Xanthium strumarium; conditions: Postemergence
Source text: Seeds of plant species selected from blackgrass (Alopecurus myosuroides), ryegrass, Italian (Italian ryegrass, Lolium multiflorum), wheat (winter wheat, Triticum aestivum), galium (catchweed bedstraw, Galium aparine), corn (Zea mays), crabgrass, large (large crabgrass, Digitaria sanguinalis), foxtail, giant (giant foxtail, Setaria faberii), johnsongrass (Sorghum halepense), lambsquarters (Chenopodium album), morningglory (Ipomoea coccinea), nutsedge, yellow (yellow nutsedge, Cyperus esculentus), pigweed (Amaranthus retroflexus), ragweed (common ragweed, Ambrosia elatior), soybean (Glycine max), barnyardgrass (Echinochloa crus-galli), oilseed rape (Brassica napus), waterhemp (common waterhemp, Amaranthus rudis), kochia (Kochia scoparia), oat, wild (wild oat, Avena fatua), surinam grass (Brachiaria decumbens), foxtail, green (green foxtail, Setaria viridis), goosegrass (Eleusine indica), bromegrass, downy (downy bromegrass, Bromus tectorum), nightshade (eastern black nightshade, Solanum ptycanthum), cocklebur (common cocklebur, Xanthium strumarium), cupgrass, woolly (woolly cupgrass, Eriochloa villosa), bermudagrass (Cynodon dactylon), sunflower, (common oilseed sunflower, Helianthus annuus), Russian thistle (Salsola kali) and velvetleaf (Abutilon theophrasti) were planted into a blend of loam soil and sand and treated preemergence with test chemicals formulated in a non-phytotoxic solvent mixture which included a surfactant. At the same time, plants selected from these crop and weed species and also barley (winter barley, Hordeum vulgare), […]), chickweed (common chickweed, Stellaria media), deadnettle (henbit deadnettle, Lamium amplexicaule), and canarygrass (littleseed canarygrass, Phalaris minor) were planted in pots containing Redi-Earth® planting medium (Scotts Company, 14111 Scottslawn Road, Marysville, Ohio 43041) comprising spaghnum peat moss, vermiculite, wetting agent and starter nutrients and treated with postemergence applications of test chemicals formulated in the same manner. Plants ranged in height from 2 to 18 cm (1- to 4-leaf stage) for postemergence treatments. Treated plants and controls were maintained in a greenhouse for 13 to 15 days, after which time all species were compared to controls and visually evaluated. Plant response ratings, summarized in Table C, are based on a scale of 0 to 100 where 0 is no effect and 100 is complete control. A dash (-) response means no test result.

| Compound | Plant response rating (galium; Postemergence, 31 g ai/ha) | Plant response rating (galium; Postemergence, 62 g ai/ha) | Plant response rating (galium; Postemergence, 125 g ai/ha) | Plant response rating (galium; Postemergence, 250 g ai/ha) | Plant response rating, Galium (galium; Preemergence, 62 g ai/ha) | Plant response rating, Galium (galium; Preemergence, 31 g ai/ha) | Plant response rating (galium; Preemergence, 125 g ai/ha) | Plant response rating (galium; Preemergence, 250 g ai/ha) | Plant response rating, Foxtail, Giant (foxtail, giant; 31 g ai/ha) | Plant response rating, Foxtail, Giant (foxtail, giant; 62 g ai/ha) | Plant response rating, Foxtail, Giant (foxtail, giant; 125 g ai/ha) | Plant response rating, Foxtail, Giant (foxtail, giant; 250 g ai/ha) | Plant response rating, Soybean (soybean; 31 g ai/ha) | Plant response rating, Soybean (soybean; 62 g ai/ha) | Plant response rating, Soybean (soybean; 125 g ai/ha) | Plant response rating, Soybean (soybean; 250 g ai/ha) | Plant response rating, Barnyardgrass (barnyardgrass; 31 g ai/ha) | Plant response rating, Barnyardgrass (barnyardgrass; 62 g ai/ha) | Plant response rating, Barnyardgrass (barnyardgrass; 125 g ai/ha) | Plant response rating, Barnyardgrass (barnyardgrass; 250 g ai/ha) | other results |
| --- | --- | --- | --- | --- | --- | --- | --- | --- | --- | --- | --- | --- | --- | --- | --- | --- | --- | --- | --- | --- | --- |
| O=C1NCC(c2ccc(F)c(F)c2)C1C(=O)Nc1ccccc1C(F)(F)F (racemic) [Compound 6] | 0 | 0 | 0 | 0 | 50 | 0 | 100 | 100 |  |  |  |  |  |  |  |  |  |  |  |  | Plant response rating (galium; Postemergence, 16 g ai/ha): 0; Plant response rating, Galium (galium; Preemergence, 16 g ai/ha): 0 |
| O=C1NCC(c2ccc(F)c(C(F)(F)F)c2)C1C(=O)Nc1cccc(F)c1F (racemic) [Compound 77] |  |  |  |  | 55 | 35 | 85 | 85 |  |  |  |  |  |  |  |  |  |  |  |  |  |
| O=C1NCC(c2ccc(C(F)(F)F)cc2)C1C(=O)Nc1cccc(F)c1F (racemic) [Compound 202] | 60 | 70 | 70 | 70 | 70 | 75 | 80 | 85 | 35 | 50 | 95 | 98 | 0 | 0 | 0 | 0 | 40 | 80 | 85 | 98 | Plant response rating, Lambsquarters (lambsquarters; 31 g ai/ha): 0; Plant response rating, Lambsquarters (lambsquarters; 62 g ai/ha): 98; Plant response rating, Lambsquarters (lambsquarters; 125 g ai/ha): 98; Plant response rating, Lambsquarters (lambsquarters; 250 g ai/ha): 98 |
| O=C1NCC(c2ccc(OC(F)F)cc2)C1C(=O)Nc1cccc(F)c1F (racemic) [Compound 350] |  |  |  |  |  |  |  |  | 0 | 20 | 50 | 80 | 0 | 0 | 0 | 0 | 15 | 40 | 60 | 98 | Plant response rating, Lambsquarters (lambsquarters; 31 g ai/ha): 80; Plant response rating, Lambsquarters (lambsquarters; 62 g ai/ha): 60; Plant response rating, Lambsquarters (lambsquarters; 125 g ai/ha): 98; Plant response rating, Lambsquarters (lambsquarters; 250 g ai/ha): 95 |
| O=C1NCC(c2cc(F)c(F)cc2F)C1C(=O)Nc1cccc(F)c1F (stereo not drawn) [Compound 50] | 0 | 0 | 0 |  | 0 | 0 | 0 |  |  |  |  |  |  |  |  |  |  |  |  |  | Plant response rating, Cocklebur (cocklebur; 31 g ai/ha, scale 0 (no effect) to 100 (complete control)): 5; Plant response rating, Cocklebur (cocklebur; 62 g ai/ha, scale 0 to 100 (0 no effect, 100 complete control)): 5; Plant response rating, Cocklebur (cocklebur; 125 g ai/ha, scale 0 to 100 (0 no effect, 100 complete control)): 5; Plant response rating, Cocklebur (cocklebur; 250 g ai/ha, scale 0 to 100 (0 no effect, 100 complete control)): 5; Plant response rating (galium; Postemergence, 16 g ai/ha): 0; Plant response rating, Galium (galium; Preemergence, 16 g ai/ha): 0 |
| O=C1NCC(c2ccc(C(F)(F)F)cc2)C1C(=O)Nc1cccc(F)c1F (stereo not drawn) [Compound 80, N-(2,3-difluorophenyl)-2-oxo-4-[4-(trifluoromethyl)phenyl]-3-pyrrolidinecarboxamide] | 20 | 45 | 55 | 60 | 45 | 0 | 65 | 75 | 65 | 75 | 80 | 90 | 0 | 0 | 0 | 40 | 20 | 50 | 75 | 80 | Plant response rating, Foxtail, Giant (foxtail, giant; 16 g ai/ha): 0; Plant response rating, Soybean (soybean; 16 g ai/ha): 0; Plant response rating, Barnyardgrass (barnyardgrass; 16 g ai/ha): 0; Plant response rating, Lambsquarters (lambsquarters; 16 g ai/ha): 50; Plant response rating, Lambsquarters (lambsquarters; 31 g ai/ha): 80; Plant response rating, Lambsquarters (lambsquarters; 62 g ai/ha): 85; Plant response rating, Lambsquarters (lambsquarters; 125 g ai/ha): 90; Plant response rating, Lambsquarters (lambsquarters; 250 g ai/ha): 90 |
| O=C1NCC(c2ccc(C(F)(F)F)cc2)C1C(=O)Nc1ccccc1F (stereo not drawn) [Compound 231] | 40 | 45 | 55 | 55 | 40 | 20 |  | 40 |  |  |  |  |  |  |  |  |  |  |  |  | Plant response rating, Galium (galium; Preemergence, 125 g ai/ha): 35 |
